# Results taken from patent US20230049952A1, “METHODS AND COMPOUNDS FOR RESTORING MUTANT P53 FUNCTION” (PMV Pharmaceuticals, Inc., priority 2020, published 2023).
# System: NF-κB signaling pathway in MT373 tumors
# Test: MT373 syngeneic sarcoma model: mouse NF-κB signaling pathway profiling panel
# Format: in vivo
compound,measurement,setting,value
"CCn1c(C#CCNc2ccccc2)cc2cc(CNC3CCN(C)CC3)ccc21 [Compound 1, 1-Anilino-3-{1-ethyl-5-[(1-methyl-4-piperidylamino)methyl]-1H-indol-2-yl}-2-propyne]",Agt fold increase over or percent reduction vs vehicle control,"150 mg/kg BIDx1, 24 h",8.18 ± 30.61 fold or %
same,Akt1 fold increase over or percent reduction vs vehicle control,"150 mg/kg BIDx1, 24 h",17.84 ± 6.63 fold or %
same,Atf1 fold increase over or percent reduction vs vehicle control,"150 mg/kg BIDx1, 24 h",42.27 ± 2.47 fold or %
same,Atf2 fold increase over or percent reduction vs vehicle control,"150 mg/kg BIDx1, 24 h",24.19 ± 2.49 fold or %
same,Bcl2a1a fold increase over or percent reduction vs vehicle control,"150 mg/kg BIDx1, 24 h",39.52 ± 5.46 fold or %
same,Bcl2l1 fold increase over or percent reduction vs vehicle control,"150 mg/kg BIDx1, 24 h",1.43 ± 0.11 fold or %
same,Bcl3 fold increase over or percent reduction vs vehicle control,"150 mg/kg BIDx1, 24 h",1.29 ± 0.31 fold or %
same,Bcl10 fold increase over or percent reduction vs vehicle control,"150 mg/kg BIDx1, 24 h",38.94 ± 3.05 fold or %
same,Birc3 fold increase over or percent reduction vs vehicle control,"150 mg/kg BIDx1, 24 h",1.03 ± 0.07 fold or %
same,Card10 fold increase over or percent reduction vs vehicle control,"150 mg/kg BIDx1, 24 h",1.32 ± 0.33 fold or %
same,Card11 fold increase over or percent reduction vs vehicle control,"150 mg/kg BIDx1, 24 h",1.14 ± 0.14 fold or %
same,Casp1 fold increase over or percent reduction vs vehicle control,"150 mg/kg BIDx1, 24 h",14.78 ± 4.65 fold or %
same,Casp8 fold increase over or percent reduction vs vehicle control,"150 mg/kg BIDx1, 24 h",9.24 ± 3.65 fold or %
same,Ccl2 fold increase over or percent reduction vs vehicle control,"150 mg/kg BIDx1, 24 h",57.69 ± 14.13 fold or %
same,Ccl5 fold increase over or percent reduction vs vehicle control,"150 mg/kg BIDx1, 24 h",21.82 ± 7.86 fold or %
same,Cd27 fold increase over or percent reduction vs vehicle control,"150 mg/kg BIDx1, 24 h",1.11 ± 0.11 fold or %
same,Cd40 fold increase over or percent reduction vs vehicle control,"150 mg/kg BIDx1, 24 h",30.05 ± 5.34 fold or %
same,Cflar fold increase over or percent reduction vs vehicle control,"150 mg/kg BIDx1, 24 h",1.01 ± 0.08 fold or %
same,Chuk fold increase over or percent reduction vs vehicle control,"150 mg/kg BIDx1, 24 h",1.03 ± 0.07 fold or %
same,Crebbp fold increase over or percent reduction vs vehicle control,"150 mg/kg BIDx1, 24 h",1.07 ± 0.06 fold or %
same,Csf1 fold increase over or percent reduction vs vehicle control,"150 mg/kg BIDx1, 24 h",14.27 ± 12.28 fold or %
same,Csf2 fold increase over or percent reduction vs vehicle control,"150 mg/kg BIDx1, 24 h",61.29 ± 2.87 fold or %
same,Csf3 fold increase over or percent reduction vs vehicle control,"150 mg/kg BIDx1, 24 h",27.25 ± 12.00 fold or %
same,Egfr fold increase over or percent reduction vs vehicle control,"150 mg/kg BIDx1, 24 h",28.45 ± 5.44 fold or %
same,Egr1 fold increase over or percent reduction vs vehicle control,"150 mg/kg BIDx1, 24 h",37.93 ± 8.71 fold or %
same,Eif2ak2 fold increase over or percent reduction vs vehicle control,"150 mg/kg BIDx1, 24 h",1.05 ± 0.10 fold or %
same,Elk1 fold increase over or percent reduction vs vehicle control,"150 mg/kg BIDx1, 24 h",12.50 ± 9.71 fold or %
same,F2r fold increase over or percent reduction vs vehicle control,"150 mg/kg BIDx1, 24 h",40.30 ± 2.19 fold or %
same,Fadd fold increase over or percent reduction vs vehicle control,"150 mg/kg BIDx1, 24 h",5.03 ± 3.48 fold or %
same,Fasl fold increase over or percent reduction vs vehicle control,"150 mg/kg BIDx1, 24 h",31.85 ± 3.66 fold or %
same,Fos fold increase over or percent reduction vs vehicle control,"150 mg/kg BIDx1, 24 h",12.09 ± 14.97 fold or %
same,Hmox1 fold increase over or percent reduction vs vehicle control,"150 mg/kg BIDx1, 24 h",13.99 ± 4.70 fold or %
same,Icam1 fold increase over or percent reduction vs vehicle control,"150 mg/kg BIDx1, 24 h",1.20 ± 0.24 fold or %
same,Ifng fold increase over or percent reduction vs vehicle control,"150 mg/kg BIDx1, 24 h",35.82 ± 11.11 fold or %
same,Ikbkb fold increase over or percent reduction vs vehicle control,"150 mg/kg BIDx1, 24 h",1.13 ± 0.20 fold or %
same,Ikbke fold increase over or percent reduction vs vehicle control,"150 mg/kg BIDx1, 24 h",1.48 ± 0.37 fold or %
same,Ikbkg fold increase over or percent reduction vs vehicle control,"150 mg/kg BIDx1, 24 h",1.07 ± 0.09 fold or %
same,Il1a fold increase over or percent reduction vs vehicle control,"150 mg/kg BIDx1, 24 h",13.50 ± 23.10 fold or %
same,Il1b fold increase over or percent reduction vs vehicle control,"150 mg/kg BIDx1, 24 h",63.25 ± 18.78 fold or %
same,Il1r1 fold increase over or percent reduction vs vehicle control,"150 mg/kg BIDx1, 24 h",31.14 ± 6.16 fold or %
same,Il10 fold increase over or percent reduction vs vehicle control,"150 mg/kg BIDx1, 24 h",1.52 ± 0.15 fold or %
same,Irak1 fold increase over or percent reduction vs vehicle control,"150 mg/kg BIDx1, 24 h",1.93 ± 9.47 fold or %
same,Irak2 fold increase over or percent reduction vs vehicle control,"150 mg/kg BIDx1, 24 h",24.86 ± 5.53 fold or %
same,Irf1 fold increase over or percent reduction vs vehicle control,"150 mg/kg BIDx1, 24 h",4.44 ± 20.95 fold or %
same,Jun fold increase over or percent reduction vs vehicle control,"150 mg/kg BIDx1, 24 h",29.31 ± 10.13 fold or %
same,Lta fold increase over or percent reduction vs vehicle control,"150 mg/kg BIDx1, 24 h",12.59 ± 29.28 fold or %
same,Ltbr fold increase over or percent reduction vs vehicle control,"150 mg/kg BIDx1, 24 h",11.61 ± 7.41 fold or %
same,Map3k1 fold increase over or percent reduction vs vehicle control,"150 mg/kg BIDx1, 24 h",1.40 ± 0.14 fold or %
same,Mapk3 fold increase over or percent reduction vs vehicle control,"150 mg/kg BIDx1, 24 h",10.05 ± 3.02 fold or %
same,Myd88 fold increase over or percent reduction vs vehicle control,"150 mg/kg BIDx1, 24 h",1.33 ± 0.11 fold or %
same,Nfkb1 fold increase over or percent reduction vs vehicle control,"150 mg/kg BIDx1, 24 h",1.39 ± 12.08 fold or %
same,Nfkb2 fold increase over or percent reduction vs vehicle control,"150 mg/kg BIDx1, 24 h",1.01 ± 0.29 fold or %
same,Nfkbia fold increase over or percent reduction vs vehicle control,"150 mg/kg BIDx1, 24 h",3.07 ± 2.68 fold or %
same,Nod1 fold increase over or percent reduction vs vehicle control,"150 mg/kg BIDx1, 24 h",1.24 ± 0.24 fold or %
same,Raf1 fold increase over or percent reduction vs vehicle control,"150 mg/kg BIDx1, 24 h",11.54 ± 3.56 fold or %
same,Rel fold increase over or percent reduction vs vehicle control,"150 mg/kg BIDx1, 24 h",1.09 ± 0.06 fold or %
same,Rela fold increase over or percent reduction vs vehicle control,"150 mg/kg BIDx1, 24 h",1.02 ± 0.07 fold or %
same,Relb fold increase over or percent reduction vs vehicle control,"150 mg/kg BIDx1, 24 h",1.10 ± 0.14 fold or %
same,Ripk1 fold increase over or percent reduction vs vehicle control,"150 mg/kg BIDx1, 24 h",1.25 ± 0.04 fold or %
same,Ripk2 fold increase over or percent reduction vs vehicle control,"150 mg/kg BIDx1, 24 h",27.80 ± 7.83 fold or %
same,Slc20a1 fold increase over or percent reduction vs vehicle control,"150 mg/kg BIDx1, 24 h",29.02 ± 4.69 fold or %
same,Smad3 fold increase over or percent reduction vs vehicle control,"150 mg/kg BIDx1, 24 h",4.92 ± 19.78 fold or %
same,Stat1 fold increase over or percent reduction vs vehicle control,"150 mg/kg BIDx1, 24 h",1.17 ± 0.19 fold or %
same,Tbk1 fold increase over or percent reduction vs vehicle control,"150 mg/kg BIDx1, 24 h",6.71 ± 4.73 fold or %
same,Tlr1 fold increase over or percent reduction vs vehicle control,"150 mg/kg BIDx1, 24 h",1.17 ± 0.16 fold or %
same,Tlr2 fold increase over or percent reduction vs vehicle control,"150 mg/kg BIDx1, 24 h",4.13 ± 15.48 fold or %
same,Tlr3 fold increase over or percent reduction vs vehicle control,"150 mg/kg BIDx1, 24 h",1.08 ± 0.12 fold or %
same,Tlr4 fold increase over or percent reduction vs vehicle control,"150 mg/kg BIDx1, 24 h",1.11 ± 0.05 fold or %
same,Tlr6 fold increase over or percent reduction vs vehicle control,"150 mg/kg BIDx1, 24 h",1.04 ± 0.10 fold or %
same,Tlr9 fold increase over or percent reduction vs vehicle control,"150 mg/kg BIDx1, 24 h",1.33 ± 0.19 fold or %
same,Tnf fold increase over or percent reduction vs vehicle control,"150 mg/kg BIDx1, 24 h",1.84 ± 47.89 fold or %
same,Tnfaip3 fold increase over or percent reduction vs vehicle control,"150 mg/kg BIDx1, 24 h",3.01 ± 14.38 fold or %
same,Tnfrsf1a fold increase over or percent reduction vs vehicle control,"150 mg/kg BIDx1, 24 h",1.21 ± 0.13 fold or %
same,Tnfrsf1b fold increase over or percent reduction vs vehicle control,"150 mg/kg BIDx1, 24 h",1.23 ± 0.12 fold or %
same,Tnfrsf10b fold increase over or percent reduction vs vehicle control,"150 mg/kg BIDx1, 24 h",2.61 ± 0.31 fold or %
same,Tnfsf10 fold increase over or percent reduction vs vehicle control,"150 mg/kg BIDx1, 24 h",18.51 ± 14.05 fold or %
same,Tnfsf14 fold increase over or percent reduction vs vehicle control,"150 mg/kg BIDx1, 24 h",1.11 ± 0.17 fold or %
same,Tollip fold increase over or percent reduction vs vehicle control,"150 mg/kg BIDx1, 24 h",1.01 ± 0.06 fold or %
same,Tradd fold increase over or percent reduction vs vehicle control,"150 mg/kg BIDx1, 24 h",1.17 ± 0.08 fold or %
same,Traf2 fold increase over or percent reduction vs vehicle control,"150 mg/kg BIDx1, 24 h",8.21 ± 7.59 fold or %
same,Traf3 fold increase over or percent reduction vs vehicle control,"150 mg/kg BIDx1, 24 h",13.02 ± 10.57 fold or %
same,Traf5 fold increase over or percent reduction vs vehicle control,"150 mg/kg BIDx1, 24 h",21.79 ± 2.60 fold or %
same,Traf6 fold increase over or percent reduction vs vehicle control,"150 mg/kg BIDx1, 24 h",1.03 ± 0.16 fold or %
same,Zap70 fold increase over or percent reduction vs vehicle control,"150 mg/kg BIDx1, 24 h",1.01 ± 0.07 fold or %
same,Agt fold increase over or percent reduction vs vehicle control,"150 mg/kg BIDx1, 48 h",1.60 ± 0.41 fold or %
same,Akt1 fold increase over or percent reduction vs vehicle control,"150 mg/kg BIDx1, 48 h",4.50 ± 1.92 fold or %
same,Atf1 fold increase over or percent reduction vs vehicle control,"150 mg/kg BIDx1, 48 h",42.46 ± 1.99 fold or %
same,Atf2 fold increase over or percent reduction vs vehicle control,"150 mg/kg BIDx1, 48 h",30.02 ± 3.86 fold or %
